# According to ChEMBL document CHEMBL3885881, “DrugMatrix”:
# Species on record: Rattus norvegicus
# Test: DrugMatrix - Regimen: Daily Repeat
# Assay type: toxicity, organism-based, Sprague-Dawley
# Parameters: regimen Daily Repeat, gender Male, age 6-8 weeks
# Details: in vivo, po, route oral GAVAGE, vehicle .5 % CMC; for BASOPHIL / EOSINOPHIL / ERYTHROCYTE COUNT / HEMATOCRIT / HEMOGLOBIN / LEUKOCYTE COUNT / LYMPHOCYTE / MEAN CORPUSCULAR HEMOGLOBIN / MEAN CORPUSCULAR HEMOGLOBIN CONCENTRATION / MEAN CORPUSCULAR VOLUME / MONOCYTE / NEUTROPHIL / PLATELET COUNT: tissue Blood; for ALANINE AMINOTRANSFERASE / ALBUMIN / ALKALINE PHOSPHATASE / ASPARTATE AMINOTRANSFERASE / BLOOD UREA NITROGEN / CHLORIDE / CHOLESTEROL / CREATINE PHOSPHOKINASE / CREATININE / GLUCOSE / PHOSPHORUS / POTASSIUM / SODIUM / TOTAL BILIRUBIN / TOTAL PROTEIN: tissue Plasma
# [1] = 0 mg/kg, 72 h, dose level Control, time 3 day
# [2] = 0 mg/kg, 120 h, dose level Control, time 5 day
# [3] = 50 mg/kg, 72 h, dose level Low, time 3 day
# [4] = 50 mg/kg, 120 h, dose level Low, time 5 day
# [5] = 1000 mg/kg, 72 h, dose level High, time 3 day
# [6] = 1000 mg/kg, 120 h, dose level High, time 5 day
compound,measurement,setting,value
CC(C)NCC(O)COc1ccc(CC(N)=O)cc1 (stereo not drawn) [ATENOLOL],BASOPHIL,[1],0%
same,EOSINOPHIL,[1],0.33%
same,ERYTHROCYTE COUNT,[1],6.2 x10E6/uL
same,HEMATOCRIT,[1],38.08%
same,HEMOGLOBIN,[1],14.92 G/DL
same,LEUKOCYTE COUNT,[1],11.13 x10E3/uL
same,LYMPHOCYTE,[1],76%
same,MEAN CORPUSCULAR HEMOGLOBIN,[1],24.1 pg
same,MEAN CORPUSCULAR HEMOGLOBIN CONCENTRATION,[1],39.17 G/DL
same,MEAN CORPUSCULAR VOLUME,[1],61.48 fL
same,MONOCYTE,[1],3.83%
same,NEUTROPHIL,[1],19.83%
same,PLATELET COUNT,[1],1327.5 x10E3/uL
same,ALANINE AMINOTRANSFERASE,[1],40.17 u/L
same,ALBUMIN,[1],4.07 G/DL
same,ALKALINE PHOSPHATASE,[1],372 u/L
same,ASPARTATE AMINOTRANSFERASE,[1],67.17 u/L
same,BLOOD UREA NITROGEN,[1],18.83 mg/dL
same,CHLORIDE,[1],105.17 MEQ/L
same,CHOLESTEROL,[1],78.17 mg/dL
same,CREATINE PHOSPHOKINASE,[1],149.17 u/L
same,CREATININE,[1],0.57 mg/dL
same,GLUCOSE,[1],185.17 mg/dL
same,PHOSPHORUS,[1],11.43 mg/dL
same,POTASSIUM,[1],6.78 MEQ/L
same,SODIUM,[1],152.83 MEQ/L
same,TOTAL BILIRUBIN,[1],0.4 mg/dL
same,TOTAL PROTEIN,[1],6.87 G/DL
same,BASOPHIL,[2],0%
same,EOSINOPHIL,[2],0%
same,ERYTHROCYTE COUNT,[2],6.05 x10E6/uL
same,HEMATOCRIT,[2],36.55%
same,HEMOGLOBIN,[2],14.7 G/DL
same,LEUKOCYTE COUNT,[2],11.8 x10E3/uL
same,LYMPHOCYTE,[2],86.83%
same,MEAN CORPUSCULAR HEMOGLOBIN,[2],24.37 pg
same,MEAN CORPUSCULAR HEMOGLOBIN CONCENTRATION,[2],40.32 G/DL
same,MEAN CORPUSCULAR VOLUME,[2],60.47 fL
same,MONOCYTE,[2],0.83%
same,NEUTROPHIL,[2],12.33%
same,PLATELET COUNT,[2],1177 x10E3/uL
same,ALANINE AMINOTRANSFERASE,[2],41.83 u/L
same,ALBUMIN,[2],3.75 G/DL
same,ALKALINE PHOSPHATASE,[2],377.5 u/L
same,ASPARTATE AMINOTRANSFERASE,[2],60.83 u/L
same,BLOOD UREA NITROGEN,[2],16 mg/dL
same,CHLORIDE,[2],105.67 MEQ/L
same,CHOLESTEROL,[2],67.83 mg/dL
same,CREATINE PHOSPHOKINASE,[2],120.33 u/L
same,CREATININE,[2],0.6 mg/dL
same,GLUCOSE,[2],167.67 mg/dL
same,PHOSPHORUS,[2],10.03 mg/dL
same,POTASSIUM,[2],6.68 MEQ/L
same,SODIUM,[2],150.5 MEQ/L
same,TOTAL BILIRUBIN,[2],0.57 mg/dL
same,TOTAL PROTEIN,[2],6.25 G/DL
same,BASOPHIL,[3],0%
same,EOSINOPHIL,[3],0%
same,ERYTHROCYTE COUNT,[3],5.54 x10E6/uL
same,HEMATOCRIT,[3],35.3%
same,HEMOGLOBIN,[3],13.9 G/DL
same,LEUKOCYTE COUNT,[3],9.75 x10E3/uL
same,LYMPHOCYTE,[3],86%
same,MEAN CORPUSCULAR HEMOGLOBIN,[3],25.1 pg
same,MEAN CORPUSCULAR HEMOGLOBIN CONCENTRATION,[3],39.35 G/DL
same,MEAN CORPUSCULAR VOLUME,[3],63.75 fL
same,MONOCYTE,[3],1%
same,NEUTROPHIL,[3],13%
same,PLATELET COUNT,[3],1258 x10E3/uL
same,ALANINE AMINOTRANSFERASE,[3],34.5 u/L
same,ALBUMIN,[3],3.75 G/DL
same,ALKALINE PHOSPHATASE,[3],332 u/L
same,ASPARTATE AMINOTRANSFERASE,[3],57 u/L
same,BLOOD UREA NITROGEN,[3],18 mg/dL
same,CHLORIDE,[3],106 MEQ/L
same,CHOLESTEROL,[3],83 mg/dL
same,CREATINE PHOSPHOKINASE,[3],110 u/L
same,CREATININE,[3],0.55 mg/dL
same,GLUCOSE,[3],164.5 mg/dL
same,PHOSPHORUS,[3],11.45 mg/dL
same,POTASSIUM,[3],6.45 MEQ/L
same,SODIUM,[3],152 MEQ/L
same,TOTAL BILIRUBIN,[3],0.3 mg/dL
same,TOTAL PROTEIN,[3],6.2 G/DL
same,BASOPHIL,[4],0%
same,EOSINOPHIL,[4],0%
same,ERYTHROCYTE COUNT,[4],5.99 x10E6/uL
same,HEMATOCRIT,[4],36.17%
same,HEMOGLOBIN,[4],14.4 G/DL
same,LEUKOCYTE COUNT,[4],11.97 x10E3/uL
same,LYMPHOCYTE,[4],88%
same,MEAN CORPUSCULAR HEMOGLOBIN,[4],24.03 pg
same,MEAN CORPUSCULAR HEMOGLOBIN CONCENTRATION,[4],39.8 G/DL
same,MEAN CORPUSCULAR VOLUME,[4],60.4 fL
same,MONOCYTE,[4],1.67%
same,NEUTROPHIL,[4],10.33%
same,PLATELET COUNT,[4],1118 x10E3/uL
same,ALANINE AMINOTRANSFERASE,[4],39.67 u/L
same,ALBUMIN,[4],3.6 G/DL
same,ALKALINE PHOSPHATASE,[4],354.33 u/L
same,ASPARTATE AMINOTRANSFERASE,[4],60.33 u/L
same,BLOOD UREA NITROGEN,[4],14 mg/dL
same,CHLORIDE,[4],104.67 MEQ/L
same,CHOLESTEROL,[4],72 mg/dL
same,CREATINE PHOSPHOKINASE,[4],115 u/L
same,CREATININE,[4],0.53 mg/dL
same,GLUCOSE,[4],172.33 mg/dL
same,PHOSPHORUS,[4],10.87 mg/dL
same,POTASSIUM,[4],6.93 MEQ/L
same,SODIUM,[4],150.33 MEQ/L
same,TOTAL BILIRUBIN,[4],0.3 mg/dL
same,TOTAL PROTEIN,[4],5.93 G/DL
same,BASOPHIL,[5],0%
same,EOSINOPHIL,[5],0.67%
same,ERYTHROCYTE COUNT,[5],5.98 x10E6/uL
same,HEMATOCRIT,[5],36.83%
same,HEMOGLOBIN,[5],14.37 G/DL
same,LEUKOCYTE COUNT,[5],10.2 x10E3/uL
same,LYMPHOCYTE,[5],87.33%
same,MEAN CORPUSCULAR HEMOGLOBIN,[5],24.07 pg
same,MEAN CORPUSCULAR HEMOGLOBIN CONCENTRATION,[5],39.03 G/DL
same,MEAN CORPUSCULAR VOLUME,[5],61.67 fL
same,MONOCYTE,[5],0.67%
same,NEUTROPHIL,[5],11.33%
same,PLATELET COUNT,[5],1408.33 x10E3/uL
same,ALANINE AMINOTRANSFERASE,[5],45.67 u/L
same,ALBUMIN,[5],3.63 G/DL
same,ALKALINE PHOSPHATASE,[5],339 u/L
same,ASPARTATE AMINOTRANSFERASE,[5],60.67 u/L
same,BLOOD UREA NITROGEN,[5],14 mg/dL
same,CHLORIDE,[5],107 MEQ/L
same,CHOLESTEROL,[5],70 mg/dL
same,CREATINE PHOSPHOKINASE,[5],137.33 u/L
same,CREATININE,[5],0.5 mg/dL
same,GLUCOSE,[5],170.33 mg/dL
same,PHOSPHORUS,[5],10.57 mg/dL
same,POTASSIUM,[5],6.17 MEQ/L
same,SODIUM,[5],151.33 MEQ/L
same,TOTAL BILIRUBIN,[5],0.3 mg/dL
same,TOTAL PROTEIN,[5],6 G/DL
same,BASOPHIL,[6],0%
same,EOSINOPHIL,[6],0%
same,ERYTHROCYTE COUNT,[6],7.06 x10E6/uL
same,HEMATOCRIT,[6],43.27%
same,HEMOGLOBIN,[6],16.87 G/DL
same,LEUKOCYTE COUNT,[6],15.07 x10E3/uL
same,LYMPHOCYTE,[6],82%
same,MEAN CORPUSCULAR HEMOGLOBIN,[6],24 pg
same,MEAN CORPUSCULAR HEMOGLOBIN CONCENTRATION,[6],39.07 G/DL
same,MEAN CORPUSCULAR VOLUME,[6],61.43 fL
same,MONOCYTE,[6],2.67%
same,NEUTROPHIL,[6],15.33%
same,PLATELET COUNT,[6],1202 x10E3/uL
same,ALANINE AMINOTRANSFERASE,[6],39.67 u/L
same,ALBUMIN,[6],3.77 G/DL
same,ALKALINE PHOSPHATASE,[6],265.33 u/L
same,ASPARTATE AMINOTRANSFERASE,[6],77 u/L
same,BLOOD UREA NITROGEN,[6],20 mg/dL
same,CHLORIDE,[6],111.33 MEQ/L
same,CHOLESTEROL,[6],76.33 mg/dL
same,CREATINE PHOSPHOKINASE,[6],139.33 u/L
same,CREATININE,[6],0.6 mg/dL
same,GLUCOSE,[6],166 mg/dL
same,PHOSPHORUS,[6],11.47 mg/dL
same,POTASSIUM,[6],7 MEQ/L
same,SODIUM,[6],158.33 MEQ/L
same,TOTAL BILIRUBIN,[6],0.27 mg/dL
same,TOTAL PROTEIN,[6],6.3 G/DL
